From US20220298135A1, “5-HETEROARYL-PYRIDIN-2-AMINE COMPOUNDS AS NEUROPEPTIDE FF RECEPTOR ANTAGONISTS” (Domain Therapeutics, priority 2019, published 2022)

Assays:
[1] = target: T1, human NPFFR1 (hNPFFR1) receptor (Homo sapiens, UniProt Q9GZQ6); assay: Human NPFFR1 evaluation using BRET biosensors (antagonist IC50); format: cell-based; settings: hNPFFR1 transiently over-expressed in HEK-293 T cells; BRET signal; stimulation by EC80 RFRP-3
T1 construct: expressed in transfected cells; host or cells: HEK-293 T cells, transient co-transfection with polyethylenimine
Protocol: Compounds of the present invention were tested successively for their agonist and antagonist activities on human NPFFR1 (hNPFFR1) receptor transiently over-expressed in HEK-293 T cells. Compounds exert agonist activity if, by themselves in absence of neuropeptide RFRP-3 (also named NPVF) they activate hNPFFR1; and they exert antagonist activity if they decrease the action of RFRP-3 on the receptor.
The assay used to measure compound activity is based on BRET (Bioluminescence Resonance Energy Transfer) biosensors and is designed to monitor the plasma membrane translocation of protein that interacts with specific Ga subunit. The specific effector (luciferase tagged: BRET donor) recruited at the membrane will be in close proximity to a plasma membrane anchor (GFP tagged: BRET acceptor) to induce a BRET signal. Biosensors are described in the patent application WO 2016/041093 A1 (Biosensors for monitoring biomolecule localization and trafficking in cells).
HEK-293 T cells are maintained in Dulbecco's Modified Eagle's Medium supplemented with 10% Foetal Calf Serum, 1% Penicillin/Streptomycin at 37° C./5% CO2.
Cells are co-transfected using polyethylenimine (25 kDa linear) with four DNA plasmids encoding: hNPFFR1, GαoB, a Gi family specific intracellular effector fused to luciferase (BRET donor), a plasma membrane effector fused to GFP (BRET acceptor). After transfection, cells are cultured for 48 h at 37° C./5% CO2.
Receptor activity is detected by changes in BRET signal.
On the day of the assay, cells are detached using trypsin 0.05%, resuspended in assay buffer (1.8 mM CaCl2, 1 mM MgCl2, 2.7 mM KCl, 137 mM NaCl, 0.4 mM NaH2PO4, 5.5 mM D-Glucose, 11.9 mM NaHCO3, 25 mM Hepes) and seeded in 384 well plate at a density of 20,000 cells per well. Then, plates are equilibrated 3.5 hours at 37° C. before adding compounds.
Compounds and luciferase substrate are added to the cells using an automated device (Freedom Evo®, Tecan) and BRET readings are collected on EnVision (PerkinElmer) with specific filters (410 nm BW 80 nm, 515 nm BW 30 nm).
Agonist and antagonist activities of compounds are consecutively evaluated on the same cell plate. Agonist activity is first measured after 10 minutes incubation with compound alone on the cells. Then, cells are stimulated by an EC80 RFRP-3 concentration and luminescence is recorded for additional 10 minutes. EC80 RFRP-3 concentration is the concentration giving 80% of the maximal RFRP-3 response. Agonist or antagonist activities are evaluated in comparison to basal signals evoked by assay buffer or EC80 RFRP-3 alone, respectively.
For IC50 determination, a dose-response test is performed using 20 concentrations (ranging over 6 logs) of each compound. Dose-response curves are fitted using the sigmoidal dose-response (variable slope) analysis in GraphPad Prism software (GraphPad Software) and IC50 of antagonist activity is calculated. Dose-response experiments are performed in duplicate, in two independent experiments.

T1 sequence (Q9GZQ6 whole entry): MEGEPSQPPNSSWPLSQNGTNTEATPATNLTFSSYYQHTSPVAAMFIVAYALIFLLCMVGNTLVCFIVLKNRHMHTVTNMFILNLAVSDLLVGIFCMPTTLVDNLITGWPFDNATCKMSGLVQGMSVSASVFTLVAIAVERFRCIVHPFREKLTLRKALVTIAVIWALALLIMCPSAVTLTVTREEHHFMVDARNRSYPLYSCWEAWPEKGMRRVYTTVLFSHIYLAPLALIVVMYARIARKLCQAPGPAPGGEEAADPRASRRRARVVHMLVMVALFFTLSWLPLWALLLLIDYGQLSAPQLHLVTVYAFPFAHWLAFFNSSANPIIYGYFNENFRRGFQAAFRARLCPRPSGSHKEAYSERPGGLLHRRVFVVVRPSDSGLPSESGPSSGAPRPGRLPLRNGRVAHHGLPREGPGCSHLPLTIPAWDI

| Compound | melting point [°C] | IC50 [1] [nM] |
| --- | --- | --- |
| Nc1ccc(-c2c[nH]c3ccccc23)c(N)n1 [Example 18, 3-(1H-indol-3-yl)pyridine-2,6-diamine] | 152 to 155 | > 1000 |
| Nc1ccc(-c2cnn3ccccc23)c(N)n1 [Example 19, 3-Pyrazolo[1,5-a]pyridin-3-ylpyridine-2,6-diamine] | 195 to 200 | > 1000 |
| CN1Cc2c(cccc2-c2ccc(N)nc2N)C1=O [Example 27, 4-(2,6-Diamino-3-pyridyl)-2-methyl-isoindolin-1-one] | > 250 | > 1000 |
| Cl.Nc1ccc(-c2cccc3ccsc23)c(N)n1 [Example 29, 3-(Benzothiophen-7-yl)pyridine-2,6-diamine] | 100 to 113 | 100 to 1000 |
| Cl.Nc1ccc(-c2cccc3scnc23)c(N)n1 [Example 30, 3-(1,3-Benzothiazol-4-yl)pyridine-2,6-diamine] | > 250 | 100 to 1000 |
| Nc1ccc(-c2cccc3cnccc23)c(N)n1 [Example 33, 3-(5-Isoquinolyl)pyridine-2,6-diamine] | > 250 | 100 to 1000 |
| Nc1ccc(-c2cccc3ncccc23)c(N)n1 [Example 34, 3-Quinolin-5-yl-pyridine-2,6-diamine] | > 250 | 100 to 1000 |
| Nc1ccc(-c2ccnc3ccccc23)c(N)n1 [Example 35, 3-Quinolin-4-yl-pyridine-2,6-diamine] | > 250 | > 1000 |
| Nc1ccc(-c2cncc3ccccc23)c(N)n1 [Example 36, 3-Isoquinolin-4-yl-pyridine-2,6-diamine] | 180 to 185 | > 1000 |
| Cl.Nc1ccc(-c2cccc3c2OCCO3)c(N)n1 [Example 38, 3-(2,3-Dihydro-benzo[1,4]dioxin-5-yl)-pyridine-2,6-diamine] | 99 to 110 | 100 to 1000 |
| CCc1nc(N)ccc1-c1c(C)sc2ccccc12.Cl [Example 41, 6-Ethyl-5-(2-methylbenzothiophen-3-yl)pyridin-2-amine] | 70 to 72 | 100 to 1000 |
| CCc1nc(N)ccc1-c1csc2ccc(C)cc12.Cl [Example 42, 6-Ethyl-5-(5-methylbenzothiophen-3-yl)pyridin-2-amine] | 64 to 88 | 100 to 1000 |
| CCc1nc(N)ccc1-c1csc2ccc(F)cc12.Cl [Example 43, 6-Ethyl-5-(5-fluorobenzothiophen-3-yl)pyridin-2-amine] | > 250 | 100 to 1000 |
| CCc1nc(N)ccc1-c1ccccc1-c1cccnc1.Cl [Example 44, 6-Ethyl-5-[2-(3-pyridyl)phenyl]pyridin-2-amine] | > 250 | 100 to 1000 |
| Cl.Nc1ccc(-c2ccccc2-c2cccnc2)c(N)n1 [Example 45, 3-[2-(3-pyridyl)phenyl]pyridine-2,6-diamine] | 100 to 135 | 100 to 1000 |
| Cl.Cn1nccc1-c1ccccc1-c1ccc(N)nc1N [Example 48, 3-(2-(1-methyl-1H-pyrazol-5-yl)phenyl)pyridine-2,6-diamine] | > 250 | > 1000 |
| Cl.Nc1ccc(-c2cccc3ccoc23)c(N)n1 [Example 50, 3-(benzofuran-7-yl)pyridine-2,6-diamine] | > 250 | 100 to 1000 |
| Cl.Nc1ccc(-c2ccc(C(F)(F)F)c3cccnc23)c(N)n1 [Example 54, 3-(5-(trifluoromethyl)quinolin-8-yl)pyridine-2,6-diamine] | > 250 | > 1000 |

Second part, the compound after the results:

| melting point [°C] | IC50 [1] [nM] | Compound |
| --- | --- | --- |
| 109 to 112 | 100 to 1000 | Nc1ccc(-c2coc3ccccc23)c(N)n1 [Example 20, 3-(Benzofuran-3-yl)pyridine-2,6-diamine] |
| 35 to 38 | 100 to 1000 | Cl.Nc1ccc(-c2csc3ccccc23)c(N)n1 [Example 21, 3-(Benzothiophen-3-yl)pyridine-2,6-diamine] |
| 116 to 118 | 100 to 1000 | Nc1ccc(-c2csc3ccc(F)cc23)c(N)n1 [Example 22, 3-(5-Fluoro-benzo[b]thiophen-3-yl)pyridine-2,6-diamine] |
| 130 to 170 | < 100 | Cc1ccc2ccc(F)c(-c3ccc(N)nc3N)c2n1.Cl [Example 23, 3-(7-fluoro-2-methylquinolin-8-yl)pyridine-2,6-diamine] |
| 150 to 154 | 100 to 1000 | Cl.Nc1ccc(-c2cccc3[nH]ccc23)c(N)n1 [Example 24, 3-(1H-Indol-4-yl)pyridine-2,6-diamine] |
| 62 to 70 | < 100 | Nc1ccc(-c2cccc3cc[nH]c23)c(N)n1 [Example 25, 3-(1H-indol-7-yl)pyridine-2,6-diamine] |
| 198 to 204 | 100 to 1000 | Cl.Cn1ncc2cccc(-c3ccc(N)nc3N)c21 [Example 26, 3-(1-Methylindazol-7-yl)pyridine-2,6-diamine] |
| > 250 | 100 to 1000 | Cl.Nc1ccc(-c2cccc3c2OCC3)c(N)n1 [Example 28, 3-(2,3-Dihydrobenzofuran-7-yl)pyridine-2,6-diamine] |
| 77 to 88 | < 100 | Cl.Nc1ccc(-c2cccc3ccncc23)c(N)n1 [Example 32, 3-Isoquinolin-8-yl-pyridine-2,6-diamine] |
| 110 to 124 | < 100 | Cl.Nc1ccc(-c2cccc3c2OCCC3)c(N)n1 [Example 37, 3-Chroman-8-yl-pyridine-2,6-diamine] |
| 165 to 170 | < 100 | Cl.Nc1ccc(-c2cccc3c2sc2ccccc23)c(N)n1 [Example 39, 3-Dibenzothiophen-4-ylpyridine-2,6-diamine] |
| 135 to 143 | < 100 | Cl.Nc1ccc(-c2cccc3c2oc2ccccc23)c(N)n1 [Example 40, 3-Dibenzofuran-4-ylpyridine-2,6-diamine] |
| 180 to 210 | < 100 | Cl.Nc1ccc(-c2ccccc2-c2ccc(N3CCOCC3)nc2)c(N)n1 [Example 46, 3-[2-(6-morpholino-3-pyridyl)phenyl]pyridine-2,6-diamine] |
| > 250 | < 100 | CCc1nc(N)ccc1-c1cccc2cccnc12.Cl [Example 47, 6-ethyl-5-(quinolin-8-yl)pyridin-2-amine] |
| 100 to 117 | < 100 | Cn1ccc2cccc(-c3ccc(N)nc3N)c21 [Example 49, 3-(1-methyl-1H-indol-7-yl)pyridine-2,6-diamine] |
| 100 to 120 | < 100 | Cl.Nc1ccc(-c2cccc3sccc23)c(N)n1 [Example 51, 3-(benzo[b]thiophen-4-yl)pyridine-2,6-diamine] |
| > 250 | < 100 | Cl.Nc1ccc(-c2cc(F)cc3cccnc23)c(N)n1 [Example 52, 3-(6-fluoroquinolin-8-yl)pyridine-2,6-diamine] |
| 180 to 200 | < 100 | Cc1cc(-c2ccc(N)nc2N)c2ncccc2c1.Cl [Example 53, 3-(6-methylquinolin-8-yl)pyridine-2,6-diamine] |
| 73 to 81 | < 100 | Cl.Nc1ccc(-c2ccc(F)c3cccnc23)c(N)n1 [Example 55, 3-(5-fluoroquinolin-8-yl)pyridine-2,6-diamine] |
| 190 to 220 | < 100 | Cl.Nc1ccc(-c2c(F)ccc3cccnc23)c(N)n1 [Example 57, 3-(7-fluoroquinolin-8-yl)pyridine-2,6-diamine] |
| 114 to 116 | < 100 | Cl.Nc1ccc(-c2cccc3cc(F)cnc23)c(N)n1 [Example 58, 3-(3-fluoroquinolin-8-yl)pyridine-2,6-diamine] |
| > 250 | < 100 | Cl.Nc1ccc(-c2c(F)cc(F)c3cc(F)cnc23)c(N)n1 [Example 61, 3-(3,5,7-trifluoroquinolin-8-yl)pyridine-2,6-diamine] |
